Source: ChEMBL document CHEMBL4411307, “N,N'-diaryl-bishydrazones in a biphenyl platform: Broad spectrum antifungal agents” (Eur J Med Chem, 2019)
In brackets after ≈: the same amount, converted by molar mass. Activity calls are given as the source filed them. The calls are words filed in the database; no cut-off is given here.

Assays:
Candida albicans [1] = experiment: Antifungal activity against fluconazole/ITC-resistant Candida albicans ATCC MYA-1003 measured after 48 hrs by CLSI M27-A3 protocol based method; format: functional; settings: ATCC MYA-1003, 48 h
[2] = Selectivity index, ratio of compound concentration showing <20 to <25% hemolysis in mouse RBC to MIC for Aspergillus flavus ATCC MYA-3631; format: toxicity; settings: red blood cells (erythrocytes), read-out: Selectivity Index
[3] = Selectivity index, ratio of compound concentration showing <20 to <25% hemolysis in mouse RBC to MIC for Candida glabrata ATCC 2001; format: toxicity; settings: red blood cells (erythrocytes), read-out: Selectivity Index
[4] = Selectivity index, ratio of CC50 for human A549 cells to MIC for fluconazole/ITC-resistant Candida albicans ATCC 10231; format: toxicity; settings: read-out: Selectivity Index
[5] = Selectivity index, ratio of CC50 for human A549 cells to MIC for fluconazole/ITC-susceptible Candida albicans ATCC MYA-2876; format: toxicity; settings: read-out: Selectivity Index
[6] = Selectivity index, ratio of CC50 for human A549 cells to MIC for Candida parapsilosis ATCC 22019; format: toxicity; settings: read-out: Selectivity Index
[7] = Selectivity index, ratio of CC50 for human A549 cells to MIC for fluconazole/ITC-resistant Candida albicans ATCC 90819; format: toxicity; settings: read-out: Selectivity Index
Candida albicans [8] = experiment: Antifungal activity against fluconazole/ITC-susceptible Candida albicans ATCC MYA-2310 measured after 48 hrs by CLSI M27-A3 protocol based method; format: functional; settings: ATCC MYA-2310, 48 h
[9] = Hemolytic activity in mouse RBC at […] after 1 hr relative to control; format: ADME, cell-based, Erythrocyte; settings: red blood cells (erythrocytes), read-out: Activity; further: tested at 0.48 µg/mL
[10] = Selectivity index, ratio of compound concentration showing <20 to <25% hemolysis in mouse RBC to MIC for Aspergillus nidulans ATCC 38163; format: toxicity; settings: red blood cells (erythrocytes), read-out: Selectivity Index
[11] = Hemolytic activity in mouse RBC at 3.9 ug/ml after 1 hr relative to control; format: ADME, cell-based, Erythrocyte; settings: red blood cells (erythrocytes), read-out: Activity
A549 = experiment: Cytotoxicity against human A549 cells after 24 hrs by resazurin based assay; format: cell-based; settings: a549, 24 h
Pichia kudriavzevii = experiment: Antifungal activity against Candida krusei ATCC 6258 measured after 48 hrs by CLSI M27-A3 protocol based method; format: functional; settings: ATCC 6258, 48 h
[12] = Selectivity index, ratio of compound concentration showing <20 to <25% hemolysis in mouse RBC to MIC for fluconazole/ITC-susceptible Candida albicans ATCC MYA-2876; format: toxicity; settings: red blood cells (erythrocytes), read-out: Selectivity Index
Candida parapsilosis = experiment: Antifungal activity against Candida parapsilosis ATCC 22019 measured after 48 hrs by CLSI M27-A3 protocol based method; format: functional; settings: Lodderomyces parapsilosis, ATCC 22019, 48 h
Listeria monocytogenes = experiment: Antibacterial activity against Listeria monocytogenes; format: functional, organism-based
[13] = Selectivity index, ratio of CC50 for human A549 cells to MIC for fluconazole/ITC-susceptible Candida albicans ATCC MYA-2310; format: toxicity; settings: read-out: Selectivity Index
Candida albicans [14] = experiment: Antifungal activity against fluconazole/ITC-resistant Candida albicans ATCC 64124 measured after 48 hrs by CLSI M27-A3 protocol based method; format: functional; settings: ATCC 64124, 48 h
[15] = Selectivity index, ratio of compound concentration showing <20 to <25% hemolysis in mouse RBC to MIC for fluconazole/ITC-resistant Candida albicans ATCC 90819; format: toxicity; settings: red blood cells (erythrocytes), read-out: Selectivity Index
Nakaseomyces glabratus = experiment: Antifungal activity against Candida glabrata ATCC 2001 measured after 48 hrs by CLSI M27-A3 protocol based method; format: functional; settings: CBS 138, 48 h
Candida albicans [16] = experiment: Antifungal activity against fluconazole/ITC-susceptible Candida albicans ATCC MYA-2876 measured after 48 hrs by CLSI M27-A3 protocol based method; format: functional; settings: ATCC MYA-2876, 48 h
[17] = Selectivity index, ratio of compound concentration showing <20 to <25% hemolysis in mouse RBC to MIC for fluconazole/ITC-resistant Candida albicans ATCC MYA-1003; format: toxicity; settings: red blood cells (erythrocytes), read-out: Selectivity Index
[18] = Selectivity index, ratio of CC50 for human A549 cells to MIC for Candida glabrata ATCC 2001; format: toxicity; settings: read-out: Selectivity Index
Aspergillus terreus = experiment: Antifungal activity against Aspergillus terreus ATCC MYA-3633 measured after 48 hrs by CLSI M38-A2 protocol based method; format: functional; settings: ATCC MYA-3633, 48 h
[19] = Selectivity index, ratio of compound concentration showing <20 to <25% hemolysis in mouse RBC to MIC for fluconazole/ITC-resistant Candida albicans ATCC 64124; format: toxicity; settings: red blood cells (erythrocytes), read-out: Selectivity Index
[20] = Selectivity index, ratio of compound concentration showing <20 to <25% hemolysis in mouse RBC to MIC for Candida krusei ATCC 6258; format: toxicity; settings: red blood cells (erythrocytes), read-out: Selectivity Index
[21] = Selectivity index, ratio of CC50 for human A549 cells to MIC for Aspergillus terreus ATCC MYA-3633; format: toxicity; settings: read-out: Selectivity Index
Candida albicans [22] = experiment: Antifungal activity against fluconazole/ITC-resistant Candida albicans ATCC 10231 measured after 48 hrs by CLSI M27-A3 protocol based method; format: functional; settings: ATCC 10231, 48 h
[23] = Selectivity index, ratio of compound concentration showing <20 to <25% hemolysis in mouse RBC to MIC for Aspergillus terreus ATCC MYA-3633; format: toxicity; settings: red blood cells (erythrocytes), read-out: Selectivity Index
Aspergillus nidulans = experiment: Antifungal activity against Aspergillus nidulans ATCC 38163 measured after 48 hrs by CLSI M38-A2 protocol based method; format: functional; settings: ATCC 38163, 48 h
Aspergillus flavus = experiment: Antifungal activity against Aspergillus flavus ATCC MYA-3631 measured after 48 hrs by CLSI M38-A2 protocol based method; format: functional; settings: ATCC MYA-3631, 48 h
[24] = Selectivity index, ratio of CC50 for human A549 cells to MIC for Aspergillus flavus ATCC MYA-3631; format: toxicity; settings: read-out: Selectivity Index
[25] = Selectivity index, ratio of compound concentration showing <20 to <25% hemolysis in mouse RBC to MIC for fluconazole/ITC-resistant Candida albicans ATCC 10231; format: toxicity; settings: red blood cells (erythrocytes), read-out: Selectivity Index
[26] = Selectivity index, ratio of CC50 for human A549 cells to MIC for fluconazole/ITC-resistant Candida albicans ATCC 64124; format: toxicity; settings: read-out: Selectivity Index
Candida albicans [27] = experiment: Antifungal activity against fluconazole/ITC-resistant Candida albicans ATCC 90819 measured after 48 hrs by CLSI M27-A3 protocol based method; format: functional; settings: ATCC 90819, 48 h
[28] = Hemolytic activity in mouse RBC at 1.95 ug/ml after 1 hr relative to control; format: ADME, cell-based, Erythrocyte; settings: red blood cells (erythrocytes), read-out: Activity
[29] = Hemolytic activity in mouse RBC at 62.5 ug/ml after 1 hr relative to control; format: ADME, cell-based, Erythrocyte; settings: red blood cells (erythrocytes), read-out: Activity
[30] = Hemolytic activity in mouse RBC at 7.8 ug/ml after 1 hr relative to control; format: ADME, cell-based, Erythrocyte; settings: red blood cells (erythrocytes), read-out: Activity
[31] = Selectivity index, ratio of CC50 for human A549 cells to MIC for Aspergillus nidulans ATCC 38163; format: toxicity; settings: read-out: Selectivity Index
[32] = Hemolytic activity in mouse RBC at 31.3 ug/ml after 1 hr relative to control; format: ADME, cell-based, Erythrocyte; settings: red blood cells (erythrocytes), read-out: Activity
[33] = Selectivity index, ratio of CC50 for human A549 cells to MIC for Candida krusei ATCC 6258; format: toxicity; settings: read-out: Selectivity Index
Candida albicans [34] = experiment: Antifungal activity against fluconazole/ITC-resistant Candida albicans ATCC MYA-1237 measured after 48 hrs by CLSI M27-A3 protocol based method; format: functional; settings: ATCC MYA-1237, 48 h
[35] = Selectivity index, ratio of compound concentration showing <20 to <25% hemolysis in mouse RBC to MIC for fluconazole/ITC-resistant Candida albicans ATCC MYA-1237; format: toxicity; settings: red blood cells (erythrocytes), read-out: Selectivity Index
[36] = Selectivity index, ratio of compound concentration showing <20 to <25% hemolysis in mouse RBC to MIC for Candida parapsilosis ATCC 22019; format: toxicity; settings: red blood cells (erythrocytes), read-out: Selectivity Index
BEAS-2B = experiment: Cytotoxicity against human BEAS2B cells after 24 hrs by resazurin based assay; format: cell-based
[37] = Selectivity index, ratio of CC50 for human A549 cells to MIC for fluconazole/ITC-resistant Candida albicans ATCC MYA-1003; format: toxicity; settings: read-out: Selectivity Index
[38] = Selectivity index, ratio of compound concentration showing <20 to <25% hemolysis in mouse RBC to MIC for fluconazole/ITC-susceptible Candida albicans ATCC MYA-2310; format: toxicity; settings: red blood cells (erythrocytes), read-out: Selectivity Index
Staphylococcus aureus = experiment: Antibacterial activity against methicillin-resistant Staphylococcus aureus; format: functional, organism-based
[39] = Selectivity index, ratio of CC50 for human A549 cells to MIC for fluconazole/ITC-resistant Candida albicans ATCC MYA-1237; format: toxicity; settings: read-out: Selectivity Index
Enterococcus = experiment: Antibacterial activity against vancomycin-resistant Enterococcus; format: functional, organism-based
[40] = Hemolytic activity in mouse RBC at […] ug/ml after 1 hr relative to control; format: ADME, cell-based, Erythrocyte; settings: red blood cells (erythrocytes), read-out: Activity

## C(=N\Nc1ccccc1)/c1ccc(-c2cccc(/C=N/Nc3ccccc3)c2)cc1
Candida albicans [1]
  MIC: 3.9 µg/mL (≈ 9.99 µM)
[2]
  selectivity ratio: 1 to 32
[3]
  selectivity ratio: 1 to 32
[4]
  selectivity ratio: 16
[5]
  selectivity ratio: 1
[6]
  selectivity ratio: 1
[7]
  selectivity ratio: 1
Candida albicans [8]
  MIC: 31.3 µg/mL (≈ 80.2 µM)
[9]
  hemolysis at 1 h, […]: 0%
[10]
  selectivity ratio: 1 to 32
[11]
  hemolysis at 1 h, 3.9 ug/ml: 1.5%
A549
  CC50: > 31 µg/mL
Pichia kudriavzevii
  MIC: 7.8 µg/mL (≈ 20 µM)
[12]
  selectivity ratio: 1 to 32
Candida parapsilosis
  MIC: > 31.3 µg/mL
Listeria monocytogenes
  Activity: inactive
[13]
  selectivity ratio: 1
Candida albicans [14]
  MIC: 31.3 µg/mL (≈ 80.2 µM)
[15]
  selectivity ratio: 1 to 32
Nakaseomyces glabratus
  MIC: > 31.3 µg/mL
Candida albicans [16]
  MIC: 31.3 µg/mL (≈ 80.2 µM)
[17]
  selectivity ratio: 1 to 32
[18]
  selectivity ratio: 1
Aspergillus terreus
  MIC: 15.6 µg/mL (≈ 39.9 µM)
[19]
  selectivity ratio: 1 to 32
[20]
  selectivity ratio: 1 to 32
[21]
  selectivity ratio: 2
Candida albicans [22]
  MIC: 1.95 µg/mL (≈ 4.99 µM)
[23]
  selectivity ratio: 1 to 32
Aspergillus nidulans
  MIC: 1.95 µg/mL (≈ 4.99 µM)
Aspergillus flavus
  MIC: 3.9 µg/mL (≈ 9.99 µM)
[24]
  selectivity ratio: 8
[25]
  selectivity ratio: 1 to 32
[26]
  selectivity ratio: 1
Candida albicans [27]
  MIC: 31.3 µg/mL (≈ 80.2 µM)
[28]
  hemolysis at 1 h, 1.95 ug/ml: 3.5%
[29]
  hemolysis at 1 h, 62.5 ug/ml: 23.6%
[30]
  hemolysis at 1 h, 7.8 ug/ml: 8.5%
[31]
  selectivity ratio: 16
[32]
  hemolysis at 1 h, 31.3 ug/ml: 16.7%
[33]
  selectivity ratio: 4
Candida albicans [34]
  MIC: 31.3 µg/mL (≈ 80.2 µM)
[35]
  selectivity ratio: 1 to 32
[36]
  selectivity ratio: 1 to 32
BEAS-2B
  CC50: > 31 µg/mL
[37]
  selectivity ratio: 4
[38]
  selectivity ratio: 1 to 32
Staphylococcus aureus
  Activity: inactive
[39]
  selectivity ratio: 1
Enterococcus
  Activity: inactive
[40]; at 15.6 µg/mL
  hemolysis at 1 h, 15.6 ug/ml: 14.1%
[40]
  hemolysis at 1 h, 0.975 ug/ml: 0%
